{"source": "patent EP0743854B1", "about": "“ANTI-TUMOUR MEDICAL P[…] THE BASIS OF C[…] THE METHOD OF ITS PRODUCTION” (PLIVA, pharmaceutical industry incorporated, priority 1994, dated 1995)", "origin": "cited, not measured here", "details": "lyophylized injection dissolved in water and other aqueous solutions (sodium chloride, glucose, dextrose)", "data": [{"compound": "N.N.O=C([O-])C1(C(=O)[O-])CCC1.[Pt+2]", "note": "[carboplatin, cis-diammine-1,1-cyclobutanedicarboxylate platinum (II)]", "values": [{"measurement": "stability of solution", "value": "stable and therefore therapeutically useful for only few hours, at most few days under lower temperature"}]}]}
